Experimental data published in US20260232662A1, “MIR-124 INDUCER, AND PREPARATION METHOD THEREFOR AND USE THEREOF” (NANJING SYNNOCARE PHARMACEUTICAL TECHNOLOGY CO., LTD., priority 2023, published 2026).

system: miR-124; test: Induction of miR-124 expression in PBMC cells (qPCR); format: cell-based; conditions: Homo sapiens, 72 h, 0.1 μM compound, human PBMCs stimulated with PMA/ionomycin, miR-191 reference gene, read-out: miR-124 expression, Fold change vs DMSO
Protocol: This study evaluated the ability of the compound of the present invention to influence miR-124 transcriptional activity in vitro. The experiment analyzed miR-124 expression in human PBMCs (Sailybio) using quantitative PCR (qPCR).
Thawed human PBMCs (1 mL) were added to 19 mL of culture medium (RPMI1640+10% hFBS+1‰ 2-mercaptoethanol) and the PBMCs were incubated in a cell culture incubator for 30 minutes. The PBMCs were collected and the cells (3.0*10^6 cells/well/3 mL) were resuspended in medium containing PMA (10 ng/mL; Invivogen) and ionomycin (200 ng/mL; Invivogen). The cells were incubated in a 6-well plate for 48 hours. Diluted compound was added to the cells to achieve a final concentration of 0.1 μM. After 72 hours, the samples were centrifuged and the cells were collected.
Total miRNA was extracted from the cells using the MiPure Cell/Tissue miRNA Kit (Vazyme) according to the manufacturer's instructions, followed by purification. The purified samples were treated with genomic DNA elimination buffer, and reverse transcription was performed using a GeneAmp PCR System. The resulting cDNA was subjected to quantitative real-time PCR (qPCR) analysis on a QuantStudio™ 7 Flex Real-Time PCR System. Data analysis was performed using the QuantStudio 7 software with default settings to automatically determine Ct values, and the results were exported. In this assay, miR-191 was used as the reference gene, and the DMSO-treated group served as the control. The relative expression of miR-124 was calculated using the following formula: […]

Row | Compound | fold induction at 0.1 µM
1 | FC(F)(F)c1ccc(Nc2nc3cc(Cl)ccc3n3ccnc23)cc1Cl [Compound B111, 7-chloro-N-(3-chloro-4-(trifluoromethyl)phenyl) imidazolo[1,2-a] quinoxalin-4-amine] | 22.5
2 | FC(F)(F)c1ccc(Nc2nc3cccc(Cl)c3n3ccnc23)nc1 [Compound B67, 9-chloro-N-(5-(trifluoromethyl)pyridin-2-yl) imidazolo [1,2-a]quinoxalin-4-amine] | 23.4
3 | FC(F)(F)Oc1ccc(Nc2nc3c(Br)cccc3n3ccnc23)cc1Cl [Compound 50] | 18.5
4 | Fc1cc(NC2=Nc3cccc(Cl)c3N3CCN=C23)ccc1OC(F)(F)F [Compound B119, 9-chloro-N-(3-fluoro-4-(trifluoromethoxy)phenyl)-1,2-dihydroimidazo[1,2-a] quinoxalin-4-amine] | 25.4
5 | FC(F)(F)Oc1ccc(Nc2nc3c(Cl)cc(Cl)cc3n3ccnc23)cc1Cl [Compound 66] | 22.7
6 | Fc1cccc2nc(Nc3ccc(C(F)(F)F)c(Cl)c3)c3nccn3c12 [Compound B80, 9-fluoro-N-(3-chloro-4-(trifluoromethyl)phenyl) imidazolo[1,2-a] quinoxalin-4-amine] | 17.2
7 | FC(F)(F)c1ccc(Nc2nc3c(Br)cccc3n3ccnc23)cc1 [Compound 51] | 23.1
8 | Fc1cc(Cl)cc2c1N=C(Nc1ccc(OC(F)(F)F)cc1)C1=NCCN12 [Compound 91] | 27.6
9 | FC(F)(F)Oc1ccc(Nc2nc3c(Br)cccc3n3ccnc23)cc1 [Compound 48] | 20.4
10 | Fc1cccc2c1nc(Nc1ccc(OC(F)(F)F)c(Cl)c1)c1nccn12 [Compound 44] | 17.5
11 | FC(F)(F)Oc1ccc(Nc2nc3ccc(Cl)cc3n3ccnc23)cc1Cl [Compound B102, 8-chloro-N-(3-chloro-4-(trifluoromethoxy)phenyl) imidazolo[1,2-a] quinoxalin-4-amine] | 27.3
12 | Fc1cc(Cl)cc2c1N1CCN=C1C(Nc1ccc(OC(F)(F)F)cc1)=N2 [Compound B130, 7-chloro-9-fluoro-N-(4-(trifluoromethoxy)phenyl)-1,2-dihydroimidazo[1,2-a] quinoxalin-4-amine] | 25.6
13 | FC(F)(F)Oc1ccc(NC2=Nc3c(Cl)cccc3N3CCN=C23)cc1 [Compound 9] | 26.9
14 | FC(F)(F)Oc1ccc(NC2=Nc3cc(Cl)ccc3N3CCN=C23)cc1 [Compound B148, 7-chloro-N-(4-(trifluoromethoxy)phenyl)-1,2-dihydroimidazo[1,2-a] quinoxalin-4-amine] | 29.4
15 | FS(F)(F)(F)(F)c1ccc(Nc2nc3cccc(Cl)c3n3ccnc23)cc1 [Compound B60, 9-chloro-N-(4-(thiopentafluoride)phenyl)imidazolo[1,2-a]quinoxalin-4-amine] | 24.8
16 | CSc1ccc(Nc2nc3cccc(Cl)c3n3ccnc23)cc1 [Compound B61, 9-chloro-N-(4-(methylthio)phenyl) imidazolo [1,2-a]quinoxalin-4-amine] | 19.9
17 | Fc1cccc2nc(Nc3ccc(OC(F)(F)F)cc3)c3nccn3c12 [Compound B2, 9-fluoro-N-(4-(trifluoromethoxy)phenyl)imidazolo [1,2-a]quinoxalin-4-amine] | 37.4
18 | FC(F)(F)Oc1ccc(NC2=Nc3c(Cl)cc(Cl)cc3N3CCN=C23)cc1Cl [Compound 87] | 15.8

Row | Compound | fold induction at 0.1 µM
19 | FC(F)(F)Oc1ccc(NC2=Nc3ccc(Cl)cc3N3CCN=C23)cc1Cl [Compound B144, 8-chloro-N-(3-chloro-4-(trifluoromethoxy)phenyl)-1,2-dihydroimidazo[1,2-a] quinoxalin-4-amine] | 27.8
20 | FC(F)(F)Oc1ccc(NC2=Nc3c(Cl)cccc3N3CCN=C23)cc1Cl [Compound 72] | 19
21 | Fc1cc(Nc2nc3cc(Cl)ccc3n3ccnc23)ccc1C(F)(F)F [Compound B110, 7-chloro-N-(3-fluoro-4-(trifluoromethyl)phenyl) imidazolo[1,2-a] quinoxalin-4-amine] | 25.5
22 | FC(F)Oc1ccc(Nc2nc3c(Cl)cccc3n3ccnc23)cc1 [Compound 21] | 15.5
23 | FC1(F)Oc2ccc(Nc3nc4cccc(Cl)c4n4ccnc34)cc2O1 [Compound B52, 9-chloro-N-(2,2-difluorobenzo[d] [1,3]dihydroxy-5-yl) imidazolo[1,2-a]quinoxalin-4-amine] | 30.2
24 | FC(F)(F)c1ccc(Nc2nc3cc(Cl)cc(Cl)c3n3ccnc23)cc1Cl [Compound B98, 7,9-dichloro-N-(3-chloro-4-(trifluoromethyl)phenyl) imidazolo[1,2-a] quinoxalin-4-amine] | 22.9
25 | Fc1cccc2nc(Nc3ccc(C(F)(F)F)cc3)c3nccn3c12 [Compound B78, 9-fluoro-N-(4-(trifluoromethyl)phenyl) imidazolo[1,2-a] quinoxalin-4-amine] | 14.9
26 | Fc1cc(Cl)cc2c1N1CCN=C1C(Nc1ccc(C(F)(F)F)c(Cl)c1)=N2 [Compound B135, 7-chloro-N-(3-chloro-4-(trifluoromethyl)phenyl)-9-fluoro-1,2-dihydroimidazo[1,2-a] quinoxalin-4-amine] | 24.9
27 | Fc1cc(Cl)cc2c1N1CCN=C1C(Nc1ccc(C(F)(F)F)cc1)=N2 [Compound B133, 7-chloro-9-fluoro-N-(4-(trifluoromethyl)phenyl)-1,2-dihydroimidazo[1,2-a] quinoxalin-4-amine] | 26.3
28 | Fc1cccc2c1nc(Nc1ccc(OC(F)(F)F)cc1)c1nccn12 [Compound 41] | 24.4
29 | Fc1cc(Nc2nc3cccc(Cl)c3n3ccnc23)ccc1OC(F)(F)F [Compound B55, 9-chloro-N-(3-Fluoro-4-(trifluoromethoxy)phenyl)imidazolo [1,2-a]quinoxalin-4-amine] | 36.3
30 | Fc1cc(Cl)cc2nc(Nc3ccc(C(F)(F)F)c(Cl)c3)c3nccn3c12 [Compound B92, 7-chloro-9-fluoro-N-(3-chloro-4-(trifluoromethyl)phenyl) imidazolo[1,2-a] quinoxalin-4-amine] | 27.1
31 | Fc1cc(Nc2nc3cc(Cl)cc(Cl)c3n3ccnc23)ccc1OC(F)(F)F [Compound B94, 7,9-dichloro-N-(3-fluoro-4-(trifluoromethoxy)phenyl) imidazolo[1,2-a] quinoxalin-4-amine] | 26.4
32 | FS(F)(F)(F)(F)c1ccc(Nc2nc3c(Cl)cccc3n3ccnc23)cc1 [Compound 22] | 15.3
33 | FC(F)(F)c1ccc(Nc2nc3cccc(Cl)c3n3ccnc23)cc1 [Compound B49, 9-chloro-N-(4-(trifluoromethyl)phenyl)imidazolo [1,2-a]quinoxalin-4-amine] | 32
34 | FC(F)(F)Oc1ccc(NC2=Nc3cc(Cl)cc(Cl)c3N3CCN=C23)cc1Cl [Compound B138, 7,9-dichloro-N-(3-chloro-4-(trifluoromethoxy)phenyl)-1,2-dihydroimidazo[1,2-a] quinoxalin-4-amine] | 29.9
35 | FC(F)(F)Oc1ccc(Nc2nc3cccc(Br)c3n3ccnc23)cc1 [Compound B3, 9-bromo-N-(4-(trifluoromethoxy)phenyl)imidazolo [1,2-a]quinoxalin-4-amine] | 23.5
